Data as given in ChEMBL document CHEMBL1240489, “Discovery of N-{1-[3-(3-oxo-2,3-dihydrobenzo[1,4]oxazin-4-yl)propyl]piperidin-4-yl}-2-phenylacetamide (Lu AE51090): an allosteric muscarinic M1 receptor agonist with unprecedented selectivity and procognitive potential” (J Med Chem, 2010).
The source made the active and inactive calls. The rule behind the calls is not given here.

Key:
[1] = Binding affinity to GABA transporter by radioligand displacement assay
[2] = biological target: T1, Muscarinic acetylcholine receptor M2 (Homo sapiens, UniProt P08172); experiment: Binding affinity to human muscarinic M2 receptor by radioligand displacement assay
T1 sequence (P08172 whole entry): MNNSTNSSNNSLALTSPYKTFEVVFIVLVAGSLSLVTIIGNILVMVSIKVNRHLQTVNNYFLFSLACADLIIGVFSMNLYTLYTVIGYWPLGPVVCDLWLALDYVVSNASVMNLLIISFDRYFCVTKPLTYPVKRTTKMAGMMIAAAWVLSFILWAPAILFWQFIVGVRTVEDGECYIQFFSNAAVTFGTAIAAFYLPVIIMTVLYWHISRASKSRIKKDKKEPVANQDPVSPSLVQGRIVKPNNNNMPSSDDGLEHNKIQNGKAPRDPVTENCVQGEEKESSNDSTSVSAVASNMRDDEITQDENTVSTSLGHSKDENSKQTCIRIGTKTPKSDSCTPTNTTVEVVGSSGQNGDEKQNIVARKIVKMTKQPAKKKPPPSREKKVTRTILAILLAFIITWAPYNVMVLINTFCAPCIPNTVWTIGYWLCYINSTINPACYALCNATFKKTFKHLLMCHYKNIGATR

Mus musculus [3] = experiment: Reversal of 60 seconds delay-induced memory decay in sc dosed C57Bl/6J mouse assessed as positive alteration administered for 1 week by Y-maze test; assay type: functional, organism-based
Mus musculus [4] = experiment: Reversal of 60 seconds delay-induced memory decay in C57Bl/6J mouse assessed as positive alteration at 0.31 to […], sc for 1 week by Y-maze test; assay type: functional, organism-based
[5] = biological target: Muscarinic acetylcholine receptor M1 (Homo sapiens, UniProt P11229, Y381A)
Brain = experiment: Protein binding in C57/6J mouse brain homogenates at 20 mg/kg, sc by equilibrium dialysis; assay type: ADME, organism-based; parameters: dose 20 mg/kg, route subcutaneous; conditions: in vivo
D(1A) dopamine receptor = D(1A) dopamine receptor (Homo sapiens, UniProt P21728); experiment: Binding affinity to human dopamine D1 receptor by radioligand displacement assay
[6] = Binding affinity to PDE3 by enzyme assay
[7] = biological target: 5-hydroxytryptamine receptor 4 (Homo sapiens, UniProt Q13639); experiment: Binding affinity to human 5-HT4e receptor by radioligand displacement assay
[8] = Binding affinity to L-type Ca2+ channel verapamil site by radioligand displacement assay
[9] = biological target: Sodium-dependent serotonin transporter (Homo sapiens, UniProt P31645); experiment: Binding affinity to human 5-HT transporter by radioligand displacement assay
[10] = Binding affinity to human delta2 opioid receptor by radioligand displacement assay
Hepatocyte = experiment: Intrinsic clearance in human hepatocytes at 1 uM after up to 120 mins by LC/MS-MS analysis; assay type: ADME, cell-based, Liver; conditions: 2 h
[11] = biological target: Tyrosine-protein kinase Lyn (Homo sapiens, UniProt P07948); experiment: Binding affinity to Lyn by enzyme assay
D(2) dopamine receptor = D(2) dopamine receptor (Homo sapiens, UniProt P14416); experiment: Binding affinity to human D2S agonist site receptor by radioligand displacement assay
[12] = Binding affinity to PDE4 by enzyme assay
[13] = Oral bioavailability in rat plasma at 2 mg/kg; assay type: ADME, organism-based
[14] = Ratio of brain to plasma AUC in C57/6J mouse at 20 mg/kg, sc; assay type: ADME, organism-based; parameters: dose 20 mg/kg, route subcutaneous
[15] = Binding affinity to Ca2+ channel by radioligand displacement assay
[16] = Tmax in rat plasma at 2 mg/kg, po; assay type: ADME, organism-based; parameters: dose 2 mg/kg, route oral
[17] = biological target: Kappa-type opioid receptor (Homo sapiens, UniProt P41145); experiment: Binding affinity to kappa opioid receptor by radioligand displacement assay
[18] = Binding affinity to human Ca2+ channel diltiazem site by radioligand displacement assay
Adenosine receptor A2a = Adenosine receptor A2a (Homo sapiens, UniProt P29274); experiment: Binding affinity to human adenosine A2A receptor by radioligand displacement assay
[19] = biological target: Beta-1 adrenergic receptor (Homo sapiens, UniProt P08588); experiment: Binding affinity to human adrenergic beta-1 receptor by radioligand displacement assay
[20] = biological target: Neuropeptide Y receptor type 1 (Homo sapiens, UniProt P25929); experiment: Binding affinity to human neuropeptide Y1 receptor by radioligand displacement assay
[21] = biological target: 5-hydroxytryptamine receptor 1A (Homo sapiens, UniProt P08908); experiment: Binding affinity to human 5-HT1A receptor by radioligand displacement assay
[22] = Volume of distribution at steady state in rat plasma at 1 mg/kg, iv and 2 mg/kg, po; assay type: ADME, organism-based; conditions: read-out: Vdss
[23] = biological target: 5-hydroxytryptamine receptor 2C (Homo sapiens, UniProt P28335); experiment: Binding affinity to human 5HT2C receptor agonist site by radioligand displacement assay
[24] = biological target: Amine oxidase [flavin-containing] A (Homo sapiens, UniProt P21397); experiment: Binding affinity to MAOA by radioligand displacement assay
[25] = biological target: Alpha-1B adrenergic receptor (Homo sapiens, UniProt P35368); experiment: Binding affinity to human adrenergic Alpha-1B receptor by radioligand displacement assay
Substance-P receptor = Substance-P receptor (Homo sapiens, UniProt P25103); experiment: Binding affinity to human NK1 receptor by radioligand displacement assay
[26] = Binding affinity to central benzodiazepine receptor by radioligand displacement assay
[27] = biological target: 5-hydroxytryptamine receptor 3A (Homo sapiens, UniProt P46098); experiment: Binding affinity to human 5-HT3 receptor by radioligand displacement assay
Nischarin = Nischarin (Homo sapiens, UniProt Q9Y2I1); experiment: Binding affinity to I1 receptor by radioligand displacement assay
[28] = biological target: Neuronal acetylcholine receptor; alpha4/beta2 (Homo sapiens, UniProt P17787+P43681); experiment: Binding affinity to nAChR alpha4beta2 receptor by radioligand displacement assay; assay type: protein-complex assay

Chain of Tyrosine-protein kinase Lyn (P07948 whole entry): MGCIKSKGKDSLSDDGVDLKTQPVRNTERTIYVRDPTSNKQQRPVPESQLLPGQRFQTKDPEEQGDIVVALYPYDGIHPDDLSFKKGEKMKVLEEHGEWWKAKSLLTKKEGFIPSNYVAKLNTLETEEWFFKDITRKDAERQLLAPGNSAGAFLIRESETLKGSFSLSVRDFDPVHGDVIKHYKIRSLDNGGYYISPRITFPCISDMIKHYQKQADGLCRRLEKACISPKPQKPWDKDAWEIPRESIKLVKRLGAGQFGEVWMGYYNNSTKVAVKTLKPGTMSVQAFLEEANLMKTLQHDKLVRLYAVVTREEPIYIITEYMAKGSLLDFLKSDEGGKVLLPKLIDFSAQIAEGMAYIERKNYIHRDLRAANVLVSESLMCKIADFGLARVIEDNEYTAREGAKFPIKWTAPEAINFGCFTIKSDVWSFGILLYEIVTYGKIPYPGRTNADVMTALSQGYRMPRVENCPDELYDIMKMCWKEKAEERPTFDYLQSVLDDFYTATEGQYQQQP
Chain of Alpha-1B adrenergic receptor (P35368 whole entry): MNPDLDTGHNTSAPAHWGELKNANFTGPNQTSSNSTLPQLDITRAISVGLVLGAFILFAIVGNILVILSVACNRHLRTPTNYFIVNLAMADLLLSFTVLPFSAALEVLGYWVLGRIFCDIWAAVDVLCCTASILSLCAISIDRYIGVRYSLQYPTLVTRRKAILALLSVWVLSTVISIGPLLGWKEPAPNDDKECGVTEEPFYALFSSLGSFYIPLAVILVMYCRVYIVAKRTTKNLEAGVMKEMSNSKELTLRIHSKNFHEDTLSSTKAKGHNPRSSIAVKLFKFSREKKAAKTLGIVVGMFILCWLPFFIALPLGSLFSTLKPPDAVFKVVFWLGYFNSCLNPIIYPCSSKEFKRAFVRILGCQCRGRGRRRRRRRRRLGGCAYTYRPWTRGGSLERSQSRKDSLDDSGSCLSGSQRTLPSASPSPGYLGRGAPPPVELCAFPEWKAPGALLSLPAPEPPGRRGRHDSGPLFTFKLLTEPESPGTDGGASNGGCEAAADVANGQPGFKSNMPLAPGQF
Chain of Sodium-dependent serotonin transporter (P31645 whole entry): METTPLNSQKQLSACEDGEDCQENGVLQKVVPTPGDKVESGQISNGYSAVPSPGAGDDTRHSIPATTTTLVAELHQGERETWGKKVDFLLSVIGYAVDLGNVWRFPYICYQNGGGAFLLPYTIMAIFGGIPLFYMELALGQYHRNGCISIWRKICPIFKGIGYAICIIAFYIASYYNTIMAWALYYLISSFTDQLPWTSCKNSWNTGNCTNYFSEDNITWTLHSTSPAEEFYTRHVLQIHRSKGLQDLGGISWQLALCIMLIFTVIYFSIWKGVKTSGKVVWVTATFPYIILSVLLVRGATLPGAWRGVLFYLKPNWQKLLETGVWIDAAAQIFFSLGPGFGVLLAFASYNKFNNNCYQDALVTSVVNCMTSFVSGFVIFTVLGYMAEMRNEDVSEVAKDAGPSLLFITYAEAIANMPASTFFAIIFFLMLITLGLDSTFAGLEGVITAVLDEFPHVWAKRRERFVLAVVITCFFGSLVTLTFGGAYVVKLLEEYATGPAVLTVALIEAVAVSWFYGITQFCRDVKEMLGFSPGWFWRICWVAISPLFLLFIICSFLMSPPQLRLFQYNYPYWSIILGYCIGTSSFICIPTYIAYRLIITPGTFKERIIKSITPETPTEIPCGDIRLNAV
Chain of 5-hydroxytryptamine receptor 1A (P08908 whole entry): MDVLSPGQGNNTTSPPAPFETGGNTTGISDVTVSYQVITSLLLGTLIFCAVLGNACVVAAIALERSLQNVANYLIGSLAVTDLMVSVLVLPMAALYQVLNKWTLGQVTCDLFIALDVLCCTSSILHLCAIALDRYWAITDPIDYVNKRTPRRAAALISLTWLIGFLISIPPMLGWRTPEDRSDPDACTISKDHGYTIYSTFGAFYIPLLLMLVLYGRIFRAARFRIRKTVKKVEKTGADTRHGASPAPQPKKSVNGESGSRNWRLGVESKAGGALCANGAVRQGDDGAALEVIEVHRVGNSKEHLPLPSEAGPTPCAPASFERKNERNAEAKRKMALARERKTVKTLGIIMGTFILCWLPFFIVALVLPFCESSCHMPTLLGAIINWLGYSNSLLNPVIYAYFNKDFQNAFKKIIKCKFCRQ
Chain of 5-hydroxytryptamine receptor 3A (P46098 whole entry): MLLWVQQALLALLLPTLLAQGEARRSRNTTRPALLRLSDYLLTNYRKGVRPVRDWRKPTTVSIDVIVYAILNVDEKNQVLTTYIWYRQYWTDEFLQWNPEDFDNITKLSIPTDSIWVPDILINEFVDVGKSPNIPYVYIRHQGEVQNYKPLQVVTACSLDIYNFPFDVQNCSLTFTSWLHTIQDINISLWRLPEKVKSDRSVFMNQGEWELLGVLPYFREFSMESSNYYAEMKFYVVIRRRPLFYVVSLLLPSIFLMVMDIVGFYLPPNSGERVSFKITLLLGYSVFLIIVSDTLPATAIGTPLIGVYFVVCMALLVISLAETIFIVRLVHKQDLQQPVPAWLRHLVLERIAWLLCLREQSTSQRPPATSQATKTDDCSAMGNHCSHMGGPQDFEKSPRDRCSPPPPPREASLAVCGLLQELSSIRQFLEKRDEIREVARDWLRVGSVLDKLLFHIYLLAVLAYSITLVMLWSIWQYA
Chain of Adenosine receptor A2a (P29274 whole entry): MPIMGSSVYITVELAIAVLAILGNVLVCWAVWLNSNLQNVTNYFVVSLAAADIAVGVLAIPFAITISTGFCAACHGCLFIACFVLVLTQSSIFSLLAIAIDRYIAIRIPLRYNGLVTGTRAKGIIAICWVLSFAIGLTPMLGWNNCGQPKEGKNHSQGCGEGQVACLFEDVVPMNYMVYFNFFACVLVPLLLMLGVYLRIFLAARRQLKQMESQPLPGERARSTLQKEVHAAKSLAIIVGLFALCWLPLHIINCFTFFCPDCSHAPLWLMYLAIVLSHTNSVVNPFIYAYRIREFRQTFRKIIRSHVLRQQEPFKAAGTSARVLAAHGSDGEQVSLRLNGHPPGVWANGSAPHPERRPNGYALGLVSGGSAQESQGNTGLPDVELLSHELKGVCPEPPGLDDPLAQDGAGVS
Chain of Nischarin (Q9Y2I1 whole entry): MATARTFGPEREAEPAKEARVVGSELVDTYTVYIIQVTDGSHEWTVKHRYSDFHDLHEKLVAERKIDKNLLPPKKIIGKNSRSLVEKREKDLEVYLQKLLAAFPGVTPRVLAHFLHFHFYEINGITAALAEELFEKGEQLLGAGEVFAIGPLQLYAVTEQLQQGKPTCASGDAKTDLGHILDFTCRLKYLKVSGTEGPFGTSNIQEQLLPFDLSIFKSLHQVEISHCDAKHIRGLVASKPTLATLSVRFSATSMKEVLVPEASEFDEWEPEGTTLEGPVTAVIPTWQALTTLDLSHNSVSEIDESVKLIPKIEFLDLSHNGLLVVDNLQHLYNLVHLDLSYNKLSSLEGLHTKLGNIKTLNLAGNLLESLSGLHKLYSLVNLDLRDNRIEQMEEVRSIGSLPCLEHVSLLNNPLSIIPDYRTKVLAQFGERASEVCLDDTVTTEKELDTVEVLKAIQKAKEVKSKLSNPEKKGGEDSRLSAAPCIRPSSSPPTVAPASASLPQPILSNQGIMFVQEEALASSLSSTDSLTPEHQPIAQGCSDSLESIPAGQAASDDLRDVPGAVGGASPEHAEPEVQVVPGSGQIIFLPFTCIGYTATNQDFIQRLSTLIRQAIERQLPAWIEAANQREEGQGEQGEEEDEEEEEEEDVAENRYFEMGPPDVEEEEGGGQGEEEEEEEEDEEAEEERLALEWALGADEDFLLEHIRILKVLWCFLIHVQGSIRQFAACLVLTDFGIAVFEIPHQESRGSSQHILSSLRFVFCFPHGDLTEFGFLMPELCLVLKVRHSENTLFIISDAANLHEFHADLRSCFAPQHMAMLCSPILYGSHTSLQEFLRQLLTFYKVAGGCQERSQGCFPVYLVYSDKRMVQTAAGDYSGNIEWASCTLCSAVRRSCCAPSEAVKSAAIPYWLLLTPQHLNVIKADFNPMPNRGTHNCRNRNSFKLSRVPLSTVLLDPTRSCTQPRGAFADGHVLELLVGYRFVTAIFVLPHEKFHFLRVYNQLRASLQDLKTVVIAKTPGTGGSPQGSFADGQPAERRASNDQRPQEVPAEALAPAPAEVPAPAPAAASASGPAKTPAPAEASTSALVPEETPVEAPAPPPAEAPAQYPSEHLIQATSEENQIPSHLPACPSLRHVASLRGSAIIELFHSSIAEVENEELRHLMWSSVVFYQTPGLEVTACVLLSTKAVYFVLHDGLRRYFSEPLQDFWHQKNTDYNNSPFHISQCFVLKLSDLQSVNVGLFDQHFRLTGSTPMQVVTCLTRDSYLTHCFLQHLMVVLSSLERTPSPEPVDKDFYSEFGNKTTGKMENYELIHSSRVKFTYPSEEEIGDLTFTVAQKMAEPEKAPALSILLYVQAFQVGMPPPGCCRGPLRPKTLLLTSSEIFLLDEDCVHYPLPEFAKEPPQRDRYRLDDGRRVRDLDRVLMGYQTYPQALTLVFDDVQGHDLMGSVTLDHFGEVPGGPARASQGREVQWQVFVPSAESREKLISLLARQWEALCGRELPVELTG
Chain of Muscarinic acetylcholine receptor M1 (P11229 whole entry Y381A): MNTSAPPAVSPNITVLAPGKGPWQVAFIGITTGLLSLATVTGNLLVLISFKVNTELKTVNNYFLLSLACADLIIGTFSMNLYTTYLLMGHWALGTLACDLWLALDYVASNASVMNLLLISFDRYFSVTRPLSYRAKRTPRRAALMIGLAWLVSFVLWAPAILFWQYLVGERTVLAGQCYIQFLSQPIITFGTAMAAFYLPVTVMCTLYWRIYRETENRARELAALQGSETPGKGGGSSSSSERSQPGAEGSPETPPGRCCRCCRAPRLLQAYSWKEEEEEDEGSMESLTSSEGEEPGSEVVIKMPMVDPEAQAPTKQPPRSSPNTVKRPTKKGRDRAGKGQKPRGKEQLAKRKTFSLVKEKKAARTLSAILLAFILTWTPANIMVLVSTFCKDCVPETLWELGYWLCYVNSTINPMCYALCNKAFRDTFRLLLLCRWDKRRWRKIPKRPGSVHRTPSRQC

O=C(Cc1ccccc1)NC1CCN(CCCN2C(=O)COc3ccccc32)CC1
Ki [1]: ≥ 1 µM
Ki [2]: ≥ 1 µM
Activity (Mus musculus [3]): Dose-dependent effect
Activity (Mus musculus [4]): inactive
EC50 [5]: 0.097 µM
Activity (Brain): 70%
Ki (D(1A) dopamine receptor): ≥ 1 µM
Ki [6]: ≥ 1 µM
Ki [7]: ≥ 1 µM
Ki [8]: ≥ 1 µM
Ki [9]: ≥ 1 µM
Ki [10]: ≥ 1 µM
CL (Hepatocyte): 3.4 L/min
Ki [11]: ≥ 1 µM
Ki (D(2) dopamine receptor): ≥ 1 µM
Ki [12]: ≥ 1 µM
bioavailability [13]: 4%
Kp [14]: 0.35
Ki [15]: ≥ 1 µM
Tmax [16]: 48 min
Ki [17]: ≥ 1 µM
Ki [18]: ≥ 1 µM
Ki (Adenosine receptor A2a): ≥ 1 µM
Ki [19]: ≥ 1 µM
Ki [20]: ≥ 1 µM
Ki [21]: ≥ 1 µM
Vd [22]: 4.8 L/kg
Ki [23]: ≥ 1 µM
Ki [24]: ≥ 1 µM
Ki [25]: 0.91 µM
Ki (Substance-P receptor): ≥ 1 µM
Ki [26]: ≥ 1 µM
Ki [27]: ≥ 1 µM
Ki (Nischarin): ≥ 1 µM
Ki [28]: ≥ 1 µM
